Experimental data: ChEMBL document CHEMBL1134159, “Sulfonylated aminothiazoles as new small molecule inhibitors of protein phosphatases” (Bioorg Med Chem Lett, 2001)

What was measured:
[1] = molecular target: T1, M-phase inducer phosphatase 2 (Homo sapiens, UniProt P30305); assay: Inhibitory activity against human recombinant Cdc25B phosphatase enzyme
T1 sequence (P30305 whole entry): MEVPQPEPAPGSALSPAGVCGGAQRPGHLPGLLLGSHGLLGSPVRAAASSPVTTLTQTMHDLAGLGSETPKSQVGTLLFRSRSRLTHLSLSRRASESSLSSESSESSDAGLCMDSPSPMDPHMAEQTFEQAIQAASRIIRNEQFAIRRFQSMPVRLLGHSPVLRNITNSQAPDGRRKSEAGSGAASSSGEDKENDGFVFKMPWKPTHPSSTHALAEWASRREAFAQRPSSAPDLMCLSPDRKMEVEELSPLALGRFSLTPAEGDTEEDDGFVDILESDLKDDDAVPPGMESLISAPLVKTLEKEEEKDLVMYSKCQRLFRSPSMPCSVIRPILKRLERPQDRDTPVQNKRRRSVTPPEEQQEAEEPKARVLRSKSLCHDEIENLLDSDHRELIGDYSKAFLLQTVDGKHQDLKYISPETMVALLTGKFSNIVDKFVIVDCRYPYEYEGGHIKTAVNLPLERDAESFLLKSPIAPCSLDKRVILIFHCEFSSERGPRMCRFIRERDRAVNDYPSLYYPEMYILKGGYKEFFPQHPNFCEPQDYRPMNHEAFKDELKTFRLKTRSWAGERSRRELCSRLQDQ

[2] = molecular target: T1, M-phase inducer phosphatase 2; assay: In vitro inhibitory activity against human recombinant Cdc25B phosphatase enzyme
[3] = molecular target: T2, Dual specificity protein phosphatase 3 (Homo sapiens, UniProt P51452); assay: In vitro inhibitory activity against human recombinant VHR phosphatase enzyme
T2 sequence (P51452 whole entry): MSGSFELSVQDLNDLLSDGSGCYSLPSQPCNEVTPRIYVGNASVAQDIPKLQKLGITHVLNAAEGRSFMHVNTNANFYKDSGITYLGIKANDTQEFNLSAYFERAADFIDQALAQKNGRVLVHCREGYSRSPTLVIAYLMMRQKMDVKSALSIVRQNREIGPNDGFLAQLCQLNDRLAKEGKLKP

[4] = molecular target: T3, Tyrosine-protein phosphatase non-receptor type 1 (Homo sapiens, UniProt P18031); assay: In vitro inhibitory activity against human recombinant PTP1B phosphatase enzyme
T3 sequence (P18031 whole entry): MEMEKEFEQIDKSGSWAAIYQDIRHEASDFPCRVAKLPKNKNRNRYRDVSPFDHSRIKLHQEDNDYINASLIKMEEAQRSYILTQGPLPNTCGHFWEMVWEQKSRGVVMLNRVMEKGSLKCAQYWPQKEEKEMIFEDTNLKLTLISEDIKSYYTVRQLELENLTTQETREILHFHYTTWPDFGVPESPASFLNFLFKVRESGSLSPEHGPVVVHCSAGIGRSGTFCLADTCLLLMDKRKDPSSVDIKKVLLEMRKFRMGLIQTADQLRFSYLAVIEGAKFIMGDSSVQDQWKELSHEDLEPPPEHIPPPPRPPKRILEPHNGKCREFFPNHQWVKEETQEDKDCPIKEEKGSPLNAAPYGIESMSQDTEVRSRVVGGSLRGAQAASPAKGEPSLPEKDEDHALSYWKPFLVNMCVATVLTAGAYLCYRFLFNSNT

[5] = molecular target: T3, Tyrosine-protein phosphatase non-receptor type 1; assay: In vitro inhibitory activity against human recombinant Protein-tyrosine phosphatase 1B
[6] = molecular target: T2, Dual specificity protein phosphatase 3; assay: In vitro inhibitory activity against human recombinant Dual specificity protein phosphatase 3 enzyme
[7] = molecular target: T1, M-phase inducer phosphatase 2; assay: In vitro inhibitory activity against human recombinant Cell division cycle 25B

Structure (SMILES) | Ki [1] [µM] | IC50 [2] [µM] | IC50 [3] [µM] | IC50 [4] [µM] | IC50 [5] [µM] | IC50 [6] [µM] | IC50 [7] [µM]
CCCc1sc(NS(=O)(=O)/C=C/c2ccc3ccccc3c2)nc1-c1ccc(-c2ccccc2)cc1 | – | > 100 | 57 | > 100 | – | – | –
N#Cc1ccc(/C=C/S(=O)(=O)Nc2nc(-c3ccccc3)c(-c3ccccc3)s2)cc1 | – | 76 | 32 | 58 | – | – | –
O=S(=O)(/C=C/c1ccc(F)c(F)c1)Nc1nc(-c2ccccc2)c(-c2ccccc2)s1 | – | 72 | 33 | 85 | – | – | –
O=S(=O)(/C=C/c1ccco1)Nc1nc(-c2ccccc2)c(-c2ccccc2)s1 | – | > 100 | > 100 | > 100 | – | – | –
O=S(=O)(/C=C/c1ccccc1Cl)Nc1nc(-c2ccc(Cl)cc2)cs1 | – | 89 | > 100 | > 100 | – | – | –
Cc1sc(NS(=O)(=O)/C=C/c2ccccc2Cl)nc1-c1ccc(Cl)cc1 | – | > 100 | > 100 | > 100 | – | – | –
CCCCCCCCCCc1sc(NS(=O)(=O)/C=C/c2ccccc2Cl)nc1-c1ccccc1 | – | > 100 | > 100 | > 100 | – | – | –
CCc1sc(NS(=O)(=O)/C=C/c2ccc([N+](=O)[O-])cc2)nc1-c1ccccc1 | – | 88 | 50 | 83 | – | – | –
O=S(=O)(/C=C/c1ccc(-c2ccccc2)cc1)Nc1nc(-c2ccccc2)c(-c2ccccc2)s1 | – | 70 | 34 | 90 | – | – | –
CCc1sc(NS(=O)(=O)/C=C/c2ccc(S(C)(=O)=O)cc2)nc1-c1ccccc1 | – | > 100 | > 100 | > 100 | – | – | –
CCc1sc(NS(=O)(=O)/C=C/c2ccccc2Cl)nc1-c1ccccc1 | – | > 100 | > 100 | > 100 | – | – | –
CCCCc1ccc(/C=C/S(=O)(=O)Nc2nc(-c3ccc(-c4ccccc4)cc3)c(CCC)s2)cc1 | – | 80 | 54 | > 100 | – | – | –
CCCc1sc(NS(=O)(=O)/C=C/c2ccc(C(F)(F)F)cc2)nc1-c1ccc(-c2ccccc2)cc1 | – | 92 | 42 | > 100 | – | – | –
Cc1ccc(/C=C/S(=O)(=O)Nc2nc(-c3ccccc3)c(-c3ccccc3)s2)cc1 | – | > 100 | > 100 | > 100 | – | – | –
COc1ccc(/C=C/S(=O)(=O)Nc2nc(-c3ccccc3)c(-c3ccccc3)s2)cc1OC | – | > 100 | > 100 | > 100 | – | – | –
CCc1sc(NS(=O)(=O)/C=C/c2ccc3ccccc3c2)nc1-c1ccccc1 | – | 89 | 32 | > 100 | – | – | –
CCCc1sc(NS(=O)(=O)/C=C/c2ccc(F)c(F)c2)nc1-c1ccc(-c2ccccc2)cc1 | – | – | – | – | 77 | 22 | 40
CCCc1sc(NS(=O)(=O)/C=C/c2ccccc2Cl)nc1-c1ccc(-c2ccccc2)cc1 | – | > 100 | 82 | > 100 | – | – | –

More lines, in order of falling IC50 [2], values ahead:

Ki [1] [µM] | IC50 [2] [µM] | IC50 [3] [µM] | IC50 [4] [µM] | IC50 [5] [µM] | IC50 [6] [µM] | IC50 [7] [µM] | Structure (SMILES)
– | 69 | 34 | 98 | – | – | – | CCCc1sc(NS(=O)(=O)/C=C/c2ccc3ccccc3c2)nc1-c1ccc2ccccc2c1
– | 58 | 39 | > 100 | – | – | – | CCCCc1ccc(/C=C/S(=O)(=O)Nc2nc(-c3ccccc3)c(-c3ccccc3)s2)cc1
– | 54 | 47 | 58 | – | – | – | O=[N+]([O-])c1ccc(/C=C/S(=O)(=O)Nc2nc(-c3ccccc3)c(-c3ccccc3)s2)cc1
– | 46 | 21 | 58 | – | – | – | CCCc1sc(NS(=O)(=O)/C=C/c2ccc(C)cc2)nc1-c1ccc(-c2ccccc2)cc1
– | 38 | 27 | 35 | – | – | – | CCCc1sc(NS(=O)(=O)/C=C/c2ccc(-c3ccccc3)cc2)nc1-c1ccc(Cl)cc1
– | 34 | 25 | 36 | – | – | – | O=S(=O)(/C=C/c1ccc(C(F)(F)F)cc1)Nc1nc(-c2ccccc2)c(-c2ccccc2)s1
– | 34 | 48 | 32 | – | – | – | CCCc1sc(NS(=O)(=O)/C=C/c2ccc(C)cc2)nc1-c1ccc(Cl)cc1
– | 33 | 24 | 49 | – | – | – | CCCCCCCCC/C=C/S(=O)(=O)Nc1nc(-c2ccccc2)c(-c2ccccc2)s1
– | 33 | 43 | 51 | – | – | – | Cc1sc(NS(=O)(=O)/C=C/c2ccc(F)c(F)c2)nc1-c1ccc(Cl)cc1
– | 26 | 40 | 38 | – | – | – | O=S(=O)(/C=C/c1ccccc1Cl)Nc1nc(-c2ccccc2)c(-c2ccccc2)s1
– | 26 | 20 | 59 | – | – | – | COC(=O)c1ccc(/C=C/S(=O)(=O)Nc2nc(-c3ccccc3)c(-c3ccccc3)s2)cc1
4.6 | 26 | 32 | 24 | – | – | – | CCCc1sc(NS(=O)(=O)/C=C/c2ccccc2Cl)nc1-c1ccc(Cl)cc1
– | 25 | 31 | 29 | – | – | – | CCCc1sc(NS(=O)(=O)/C=C/c2ccc(F)c(F)c2)nc1-c1ccc(C(F)(F)F)cc1
36 | 22 | 30 | 45 | – | – | – | O=S(=O)(/C=C/c1ccc2ccccc2c1)Nc1nc(-c2ccccc2)c(-c2ccccc2)s1
– | 21 | 20 | 20 | – | – | – | CCCc1sc(NS(=O)(=O)/C=C/c2ccc(F)c(F)c2)nc1-c1ccc(Cl)cc1
– | 20 | 31 | 20 | – | – | – | CCCc1sc(NS(=O)(=O)/C=C/c2ccc(C)cc2)nc1-c1ccc(C(F)(F)F)cc1
– | 14 | 25 | 10 | – | – | – | CCCc1sc(NS(=O)(=O)/C=C/c2ccccc2Cl)nc1-c1ccc(C(F)(F)F)cc1
